Data as given in patent US20060046968A1, “Prodrug substituted benzoxazoles as estrogenic agents” (priority 2004, published 2006).

Experiments:
[1] = tested on: Progesterone receptor mRNA; test: Progesterone receptor mRNA regulation in the preoptic area of the rat brain; assay type: in vivo; conditions: 10 mg/kg
[2] = Cytosolic incubation in the presence of PAPS (sulfation), rat; assay type: in vitro ADME
Description: These pilot incubations (1.0 mL incubation volume) were conducted using a substrate concentration of 100 μM ERB-041 at 37° C. for 60 mins. Incubations were terminated by the addition of an equal volume of chilled acetonitrile. Large-scale incubations (a total of 60 incubations @ 1.0 mL incubation volume) to generate sufficient quantities of the sulfate metabolites for structure elucidation were subsequently conducted as described above at 37° C. for 60 mins. Appropriate substrate controls and incubations without addition of PAPS were conducted. Additional incubations (a total of 120 @ 2.0 mL incubation volume, 50 μM ERB-041) were also conducted in a similar manner to isolate sufficient amounts of ERB-041-sulfates to enable full structural identification. Reserved phase-HPLC was utilized for all metabolite analysis. To confirm the formation of glucuronide and sulfate conjugates of ERB-041 in pilot scale incubations, HPLC analysis was performed using an Agilent 1100 LC system equipped with a diode array detector (Agilent Technologies, Wilmington, Del.). […] Rat liver and human liver cytosol incubations produced similar profiles. […] Further confirmation of the identity of the isolated metabolites […] and M9 from the large-scale incubations was obtained using LC-MS analysis (ESI, negative ionization). […]

Lewis rats = test: Lewis rat adjuvant-induced arthritis, treatment protocol: tarsal joint histology (synovitis, Mankin); assay type: in vivo; conditions: 50 mg/kg, tarsal joints
[3] = Microsomal incubation in the presence of UDPGA (glucuronidation); assay type: in vitro ADME, rat; conditions: 100 μM, 37° C., 60 mins, with UDPGA
Description: An analytical scale incubation of ERB-041 with male SD rat liver microsomes in the presence of UDPGA was conducted in phosphate buffer (0.1 M, pH 7.4) containing 1 mg/mL rat liver microsomal protein with final concentrations of 5 mM magnesium chloride and 4 mM UDPGA. This pilot incubation (1.0 mL incubation volume) was conducted using a substrate concentration of 100 μM at 37° C. for 60 mins. Incubations were terminated by the addition of an equal volume of chilled acetonitrile. Large-scale incubations (a total of 37 incubations @ 5.0 mL incubation volume) to generate sufficient quantities of the glucuronide metabolites for structure elucidation were subsequently conducted as described above at 37° C. for 60 mins. Appropriate substrate controls and incubations without addition of UDPGA were also carried out. Reserved phase-HPLC was utilized for all metabolite analysis. To confirm the formation of glucuronide and sulfate conjugates of ERB-041 in pilot scale incubations, HPLC analysis was performed using an Agilent 1100 LC system equipped with a diode array detector (Agilent Technologies, Wilmington, Del.). […] Separation of the two metabolites was achieved using gradient solvent system B as described supra.

[4] = Cytosolic incubation in the presence of PAPS (sulfation), human; assay type: in vitro ADME; conditions: 100 μM, 37° C., 60 mins, with PAPS; human liver cytosol
Description: These pilot incubations (1.0 mL incubation volume) were conducted using a substrate concentration of 100 μM ERB-041 at 37° C. for 60 mins. Incubations were terminated by the addition of an equal volume of chilled acetonitrile. Reserved phase-HPLC was utilized for all metabolite analysis. To confirm the formation of glucuronide and sulfate conjugates of ERB-041 in pilot scale incubations, HPLC analysis was performed using an Agilent 1100 LC system equipped with a diode array detector (Agilent Technologies, Wilmington, Del.). […] Rat liver and human liver cytosol incubations produced similar profiles. […] Further confirmation of the identity of the isolated metabolites […] and M9 from the large-scale incubations was obtained using LC-MS analysis (ESI, negative ionization). In the large-scale incubation, approximately 23% of ERB-041 was converted to the two sulfate conjugates. Separation of the two sulfate metabolites was achieved using gradient solvent system C described supra.

[5] = tested on: human endometrial tissue implanted into ovariectomized athymic nude mice; test: Endometriosis test procedure: human endometrial tissue implanted into nude mice; assay type: in vivo, mouse
Description: This procedure is slightly modified from a published method [Bruner-Tran. et al., Journal of Clinical Investigation 99: 2851-2857 (1997)]. […] Lesions are allowed to establish for at least 10 days, then oral daily dosing begins and continues for at least 15 days. It should be noted that all mice have visible lesions at the start of dosing. At necropsy, the number of mice with lesions is determined, as well as the lesions per mouse.

[6] = tested on: ovulation (number of oocytes ovulated); test: Ovulation inhibition test procedure; assay type: in vivo; conditions: 50 mg/kg
From the text: The test procedure is used to determine whether test compounds can inhibit or change the timing of ovulation. It can also be used to determine the number of oocytes ovulated [Lundeen, et al., J Steroid Biochem Mol Biol 78: 137-143 (2001)]. The following data were obtained from representative metabolites of compounds from the invention (Table 22).

converted to the two sulfate conjugates ([2]; large-scale incubation with PAPS)	Compound	Progesterone receptor mRNA (mean ± stdev) [1] [arbitrary units]	Metabolites detected ([2]; 100 μM, 37° C., 60 mins, with PAPS, rat liver cytosol)	Cartilage Cells (0-3), mean ± SD (Lewis rats)	Cartilage Structure (0-6), mean ± SD (Lewis rats)	Fibroplasia (0-3), mean ± SD (Lewis rats)	Inflammatory Cells (0-3), mean ± SD (Lewis rats)	Pannus (0-1), mean ± SD (Lewis rats)	Saffranin-O/Fast Green Staining (0-4), mean ± SD (Lewis rats)	Tidemark Integrity (0-1) (Lewis rats)	Total Mankin Score (0-14), mean ± SD (Lewis rats)	Total Synovitis Score (0-10), mean ± SD (Lewis rats)	Metabolites detected [3]	Metabolites detected [4]	lesions at necropsy versus vehicle ([5]; 10 mg/kg, evaluated three times)	lesions found per animal ([5]; Study 1, 10 mg/kg oral daily)	mice with lesion regression ([5]; Study 1, 10 mg/kg oral daily)	mice with any lesions at necropsy ([5]; Study 1, 10 mg/kg oral daily, vehicle: four of four mice)	Number of oocytes (mean ± SEM) [6]
	Oc1cc(Br)c2oc(-c3ccc(O)c(F)c3)nc2c1 [Example 21, 7-BROMO-2-(3-FLUORO-4-HYDROXYPHENYL)-1,3-BENZOXAZOL-5-OL]	110.5 ± 19.3																	
approximately 23%	C=Cc1cc(O)cc2nc(-c3ccc(O)c(F)c3)oc12 [Example 24, 2-(3-FLUORO-4-HYDROXYPH ENYL)-7-VI NYL-1,3-BENZOXAZOL-5-OL]		two metabolites (M9A and M9) were detected	0.83 ± 0.75	1.58 ± 0.49	0.42 ± 0.80	1.33 ± 0.41	0.08 ± 0.20	1.25 ± 0.69	0	3.67 ± 1.86	3.25 ± 1.54	two major metabolites, M5 and M6, were detected	two metabolites (M9A and M9) were detected	fewer lesions at necropsy than those mice dosed with vehicle	one lesion	four of six mice	two of six mice	13.86 ± 0.77
